In this data set the test system is male Zucker fatty rats. Kind of data set: Subchronic (7 day) oral administration in male Zucker fatty rats, Method B14. The format is in vivo, rat. From the text:
B14. Effects of Subchronic Administration of Representative Compounds of the Invention in Male Zucker Fatty Rats
The objective of this study is to determine the subchronic effects of test compounds on body weight change, food and water consumption, as well as glucose homeostasis and insulin levels in male Zucker fatty rats up to 7 days upon oral administration. The male Zucker fatty rat was selected as an insulin resistance and genetically defined obesity model which is sensitive to the effect of different insulin sensitizers in acute as well as in chronic settings.
Rats were individually housed in rodent cages with soft wood bedding on the bottom and equipped with water bottles. All individual cages were clearly labeled with a cage card indicating study number, group, animal number and dose level. Each animal was uniquely identified by an animal number. The animal number was designated the day the animals arrived at the animal facility. The animal room environment was controlled (targeted ranges: temperature 22±2° C.; relative humidity 50±10%; light/dark cycle: 12 hours light, 12 hours dark, lights on from 06:00 AM to 06:00 PM). A regular rodent diet (Charles River 5075 rodent chow, Purina Mills, Canada) was provided to the animals ad libitum, after food weighing. Municipal tap water was provided to the animals ad libitum via water bottles. Fresh tap water was provided after water bottle weighing.
An acclimation period of approximately 7 days for all groups was allowed between the receipt of animals and the start of treatment to accustom the rats to the laboratory environment. On experimental day −7, animals were stratified according to body weight into an appropriate number of groups of 4 or 8 animals each.
Test compound was administered, as a solution, orally, at the doses indicated. The dose volume was 5 mL/kg/day. Groups were dosed once daily around 8:00 a.m. On Day 3, on half of the animals (Subset A) and on Day 4 on the other half (Subset B), an OGTT was performed 2 hrs post-dosing (around 10:00 a.m.). The OGTT was repeated the same way on Days 7 (Subset A) and 8 (Subset B).
For the study animals, the data collected from study Days −7 to 8 are reported. Body weights were recorded for all animals on Day −7 prior to initiation of dosing, at the time of group assignment and daily throughout the study period (Day 1-8). Food and water intake was measured daily throughout the study period (Day 1-8). On Day 1 (Subset A), Day 2 (Subset B), Day 3 (Subset A), Day 4 (Subset B), Day 7 (Subset A) and Day 8 (Subset B), animals from Groups 2 and 3 were sampled for blood into EDTA coated tubes (K2-EDTA microtainer tubes, Becton Dickinson) from a tail vein (˜100 μl) 2 hrs post-dose for PK analysis. Blood was centrifuged at 4000 rpm for 10 min. at 4° C., and the resulting plasma transferred into non-coated tubes and stored at −80° C. until analysis.
An oral glucose tolerance test (OGTT) was carried out in animals of all groups on Day 3 (half of the animals) as well as on day 4 (other half of the animals). This was done 2 hrs post-dose. Animals were subjected to an overnight fast (food removed the day before at 5:00 PM). Blood samples of approximately 20 μL each for plasma glucose and 230 μL for plasma insulin measurements were collected into EDTA coated tubes (K2-EDTA microtainer tubes, Becton Dickinson) from a tail vein, at 0 (pre-glucose), 15, 30, 60, and 120 min after oral administration of 1.5 g/kg glucose (dextrose, Sigma Aldrich, 450 mg/mL dosing solution). The glucose solution was administered by oral gavage via a stainless steel feeding needle (18×2″, Popper @ Sons, cat. # 20068-642, VWR). While glucose concentrations were determined from a 20 μL drop of blood (Accu-Chek Aviva glucometers, Roche Diagnostics), the remaining 230 μL was centrifuged at 4000 rpm for 10 min. at 4° C., and the resulting plasma transferred into non-coated tubes and stored a −80° C. for insulin determination. […]

The record followed here is US20110105389A1 (priority 2009, published 2011).

For `CC[C@@H]1CCc2ccc(F)cc2OCCN[C@@H](C(C)C)C(=O)N(C)[C@@H](C(C)O)C(=O)N[C@H](Cc2c[nH]c3ccccc23)C(=O)N1` (some centres unmarked) [Compound 1505], the “food consumption on a daily basis vs vehicle controls” value was “significant reductions” (10 mg/kg, 2 day timepoint); “significant reductions” (30 mg/kg, 2 day timepoint); “remained significant” (higher dose (30 mg/kg), through the 6 day timepoint). Further, the cumulative food consumption entry (30 mg/kg oral, FIG. 10) was “significant decrease”. For the same molecule, the net body weight entry (30 mg/kg oral, over the 7 day study period, FIG. 9) is “significant reduction”. For the setting “30 mg/kg, at both day 3 and day 7”, the “OGTT blood glucose versus untreated controls” value is reported as “decrease”. Further, the insulin sensitivity index entry (attaining significance at the higher dose) was “higher”. Also, the free fatty acids result (both treatment groups) is “significantly reduced”. The total cholesterol entry (both treatment groups) is “significantly reduced”. Besides, the “plasma levels (PK analysis)” value (oral administration) is on record as “sufficient plasma levels”. Under “rat, in vivo”, the “insulin levels (area under the curve, AUC) in OGTT” value was “lowering effect”.
